In one test the target is SARS-CoV-2 3CLpro (Severe acute respiratory syndrome coronavirus 2, UniProt P0DTD1). In words: FRET based protease assay, SARS-CoV-2 3CL. It counts as biochemical, SARS-CoV-2 (strain BetaCoV/Wuhan/WIV04/2019).
The target of another test is MERS-CoV 3CLpro (Middle East respiratory syndrome-related coronavirus, UniProt K9N638). Description: biochemical. Conditions: MERS IC50, 75 nM MERS-CoV 3CLpro, 6 μM peptide 1 substrate, 25° C., 1.5 hrs, pH 7.5.

What is called IC50 is the concentration that inhibits the measured activity by half. Low values mean inhibition by little substance, high ones a need for much substance.

MERS-CoV 3CLpro, sequence (K9N638 3248-3553 limits assumed): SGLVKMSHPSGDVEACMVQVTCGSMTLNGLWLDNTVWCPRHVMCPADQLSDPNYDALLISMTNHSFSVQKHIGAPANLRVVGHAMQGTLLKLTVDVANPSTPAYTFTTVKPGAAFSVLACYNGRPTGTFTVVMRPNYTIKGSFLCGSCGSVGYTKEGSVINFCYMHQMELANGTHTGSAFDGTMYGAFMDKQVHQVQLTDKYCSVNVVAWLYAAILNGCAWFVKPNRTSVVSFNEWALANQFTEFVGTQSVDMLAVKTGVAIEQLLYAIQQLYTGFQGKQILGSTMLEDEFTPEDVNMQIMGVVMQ

For the compound `CC(C)(C)OC(=O)NN1CCCC[C@H]2CNC(=O)[C@H]2C[C@@H](C#N)NC(=O)[C@@H]2[C@@H]3[C@H](CN2C1=O)C3(C)C` [Example 168], the IC50 against SARS-CoV-2 3CLpro and against MERS-CoV 3CLpro was 1 to 20 µM each time.

The record behind these values is patent US20260325540A1 (priority 2023, published 2026).
